Data from ChEMBL document CHEMBL3864140, “Melanogenesis inhibitory activity of a 7-O-9'-linked neolignan from Alpinia galanga fruit” (Bioorg Med Chem, 2016).

What was measured:
[1] = Cytotoxicity against theophylline-stimulated mouse B16-4A5 cells assessed as cell viability at 10 uM after 72 hrs by MTT assay relative to control; assay type: toxicity; conditions: theophylline-stimulated B16-4A5 cells, read-out: Activity
[2] = Cytotoxicity against theophylline-stimulated mouse B16-4A5 cells assessed as cell viability at 1 uM after 72 hrs by MTT assay relative to control; assay type: toxicity; conditions: theophylline-stimulated B16-4A5 cells, read-out: Activity
[3] = Antimelanogenic activity in theophylline-stimulated mouse B16-4A5 cells assessed as inhibition of melanogenesis at 1 uM after 72 hrs relative to control; assay type: functional; conditions: B16-4A5, 72 h
[4] = Antimelanogenic activity in theophylline-stimulated mouse B16-4A5 cells assessed as inhibition of melanogenesis after 72 hrs relative to control; assay type: functional, cell-based
[5] = Cytotoxicity against theophylline-stimulated mouse B16-4A5 cells assessed as cell viability at 0.3 uM after 72 hrs by MTT assay relative to control; assay type: toxicity; conditions: theophylline-stimulated B16-4A5 cells, read-out: Activity
[6] = Antimelanogenic activity in theophylline-stimulated mouse B16-4A5 cells assessed as inhibition of melanogenesis at 10 uM after 72 hrs relative to control; assay type: functional; conditions: B16-4A5, 72 h
[7] = Antimelanogenic activity in theophylline-stimulated mouse B16-4A5 cells assessed as inhibition of melanogenesis at 0.3 uM after 72 hrs relative to control; assay type: functional; conditions: B16-4A5, 72 h
[8] = Antimelanogenic activity in theophylline-stimulated mouse B16-4A5 cells assessed as inhibition of melanogenesis at 3 uM after 72 hrs relative to control; assay type: functional; conditions: B16-4A5, 72 h
[9] = Cytotoxicity against theophylline-stimulated mouse B16-4A5 cells assessed as cell viability at 3 uM after 72 hrs by MTT assay relative to control; assay type: toxicity; conditions: theophylline-stimulated B16-4A5 cells, read-out: Activity
cells [10] = conditions: Mus musculus, B16-4A5, 72 h, read-out: INH
[11] = Cytotoxicity against theophylline-stimulated mouse B16-4A5 cells assessed as cell viability at 100 uM after 72 hrs by MTT assay relative to control; assay type: toxicity; conditions: theophylline-stimulated B16-4A5 cells, read-out: Activity
[12] = Cytotoxicity against theophylline-stimulated mouse B16-4A5 cells assessed as cell viability at 30 uM after 72 hrs by MTT assay relative to control; assay type: toxicity; conditions: theophylline-stimulated B16-4A5 cells, read-out: Activity
cells [13] = conditions: Mus musculus, B16-4A5, 72 h, read-out: INH; remark: listed apart in the source
Description: Antimelanogenic activity in theophylline-stimulated mouse B16-4A5 cells assessed as inhibition of melanogenesis at 30 uM after 72 hrs relative to control

[14] = Downregulation of TRP1 expression in theophylline-stimulated mouse B16-4A5 cells assessed as ratio of TRP1 mRNA expression to beta-actin mRNA expression at 3 uM after 72 hrs by qRT-PCR analysis (reference value: […] +/- […]); assay type: functional, cell-based
[15] = Downregulation of TRP1 expression in theophylline-stimulated mouse B16-4A5 cells assessed as ratio of TRP1 mRNA expression to beta-actin mRNA expression at 10 uM after 72 hrs by qRT-PCR analysis (reference value: […] +/- […]); assay type: functional, cell-based
[16] = Potency index, ratio of arbutin IC50 to compound IC50 for antimelanogenic activity in mouse B16-4A5 cells; assay type: functional
[17] = Downregulation of TRP2 expression in theophylline-stimulated mouse B16-4A5 cells assessed as ratio of TRP2 mRNA expression to beta-actin mRNA expression at 10 uM after 72 hrs by qRT-PCR analysis (reference value: […] +/- […]); assay type: functional, cell-based
[18] = Downregulation of TRP2 expression in theophylline-stimulated mouse B16-4A5 cells assessed as ratio of TRP2 mRNA expression to beta-actin mRNA expression at 3 uM after 72 hrs by qRT-PCR analysis (reference value: […] +/- […]); assay type: functional, cell-based
[19] = Downregulation of tyrosinase expression in theophylline-stimulated mouse B16-4A5 cells assessed as ratio of tyrosinase mRNA expression to beta-actin mRNA expression at 3 uM after 72 hrs by qRT-PCR analysis (reference value: […] +/- […]); assay type: functional, cell-based
[20] = Downregulation of tyrosinase expression in theophylline-stimulated mouse B16-4A5 cells assessed as ratio of tyrosinase mRNA expression to beta-actin mRNA expression at 10 uM after 72 hrs by qRT-PCR analysis (reference value: […] +/- […]); assay type: functional, cell-based

| Structure (SMILES) | IC50 [4] [µM] | viability at 72 h, 10 µM [1] [%] | viability at 72 h, 1 µM [2] [%] | inhibition at 1 µM [3] [%] | viability at 72 h, 0.3 µM [5] [%] | inhibition at 10 µM [6] [%] | inhibition at 0.3 µM [7] [%] | inhibition at 3 µM [8] [%] | viability at 72 h, 3 µM [9] [%] | inhibition at 100 µM (cells [10]) [%] | viability at 72 h, 100 µM [11] [%] | viability at 72 h, 30 µM [12] [%] | inhibition at 30 µM (cells [13]) [%] | Ratio [14] | Ratio [15] | Ratio IC50 [16] | Ratio [17] | Ratio [18] | Ratio [19] | Ratio [20] |
| --- | --- | --- | --- | --- | --- | --- | --- | --- | --- | --- | --- | --- | --- | --- | --- | --- | --- | --- | --- | --- |
| COC/C=C/c1ccc(O)cc1 | 19.5 | 104 |  |  |  | 25.1 |  | 18.2 | 109 | 81.7 | 107 | 93.6 | 56.9 |  |  |  |  |  |  |  |
| CCC(=O)c1ccc(O)cc1 [PAROXYPROPIONE] |  | 116 |  |  |  | -3.6 |  | 4.1 | 111 | -3.6 | 125 | 117 | -1.9 |  |  |  |  |  |  |  |
| O=Cc1ccc(O)cc1 [4-HYDROXYBENZALDEHYDE] |  | 103 |  |  |  | 4.2 |  | 11.3 | 107 | 3.5 | 103 | 107 | 7.9 |  |  |  |  |  |  |  |
| C=C[C@H](O)c1ccc(OC(C)=O)cc1 | 88.5 | 97.2 |  |  |  | -0.4 |  | -6.7 | 87.9 | 56.7 | 114 | 101 | 14.9 |  |  |  |  |  |  |  |
| CC(=O)OC/C=C/c1ccc(O)cc1 |  | 100 |  |  |  | 0 |  | 4.1 | 99.2 | -13.4 | 90.1 | 96.1 | -3 |  |  |  |  |  |  |  |
| C=C[C@H](OC(C)=O)c1ccc(OC(C)=O)cc1 [1'-ACETOXYCHAVICOL ACETATE] | 5 | 99.9 | 102 | 6.2 | 103 | 73.1 | 9.3 | 29.8 | 99.9 |  |  |  |  | 0.86 | 0.5 | >25 - 70 | 0.34 | 1.08 | 1 | 0.49 |
| COc1cc(C=O)ccc1O [VANILLIN] | 49.2 | 104 |  |  |  | 8.4 |  | -8.4 | 108 | 96.1 | 106 | 104 | 49.7 |  |  |  |  |  |  |  |
| OC/C=C/c1ccc(O)cc1 | > 100 | 98.4 |  |  |  | -2.8 |  | -3.4 | 98.9 | 46.9 | 110 | 116 | 35.8 |  |  |  |  |  |  |  |
| CC(=O)Oc1ccc(/C=C/CO)cc1 | 29.4 | 85.8 |  |  |  | 18 |  | 10.7 | 92.9 | 94.8 | 44.9 | 65.5 | 96.9 |  |  |  |  |  |  |  |
| C=C[C@H](O)c1ccc(OC(C)=O)c(OC)c1 |  | 114 |  |  |  | 10.9 |  | 5 | 104 | 22.9 | 124 | 113 | 11.7 |  |  |  |  |  |  |  |

Further compounds by falling IC50 [4], results first:

| IC50 [4] [µM] | Structure (SMILES) | viability at 72 h, 10 µM [1] [%] | viability at 72 h, 1 µM [2] [%] | inhibition at 1 µM [3] [%] | viability at 72 h, 0.3 µM [5] [%] | inhibition at 10 µM [6] [%] | inhibition at 0.3 µM [7] [%] | inhibition at 3 µM [8] [%] | viability at 72 h, 3 µM [9] [%] | inhibition at 100 µM (cells [10]) [%] | viability at 72 h, 100 µM [11] [%] | viability at 72 h, 30 µM [12] [%] | inhibition at 30 µM (cells [13]) [%] | Ratio [14] | Ratio [15] | Ratio IC50 [16] | Ratio [17] | Ratio [18] | Ratio [19] | Ratio [20] |
| --- | --- | --- | --- | --- | --- | --- | --- | --- | --- | --- | --- | --- | --- | --- | --- | --- | --- | --- | --- | --- |
| 18.3 | O=C/C=C/c1ccc(O)cc1 [p-HYDROXYCINNAMALDEHYDE] | 108 |  |  |  | 12.8 |  | 8.9 | 103 | 104 | 66.8 | 94.3 | 67.4 |  |  |  |  |  |  |  |
| 16.9 | COc1cc(/C=C/CO)ccc1OC(C)=O | 85.9 |  |  |  | 12.9 |  | 5.5 | 90.6 | 63.3 | 41.7 | 60.1 | 102 |  |  |  |  |  |  |  |
| 16.1 | COc1cc(/C=C/CO)ccc1O [CONIFERYL ALCOHOL] | 98.2 |  |  |  | 44.5 |  | 35.9 | 98.9 | -3 | 33.1 | 88 | 64.2 |  |  |  |  |  |  |  |
| 15.3 | COc1cc(/C=C/C=O)ccc1O [CONIFERYL ALDEHYDE] | 85.8 |  |  |  | 23.7 |  | 17 | 101 | 87.7 | 44.7 | 74.2 | 100 |  |  |  |  |  |  |  |
| 10.5 | CC[C@H](OC(C)=O)c1ccc(OC(C)=O)cc1 | 105 |  |  |  | 44.5 |  | 41.6 | 106 | 105 | 94.5 | 96.5 | 74.1 |  |  |  |  |  |  |  |
| 4.5 | C=C[C@@H](OC(C)=O)c1ccc(OC(C)=O)cc1 | 88.7 | 98.8 | 21.2 | 96.6 | 69.2 | 8.4 | 36.8 | 95.2 |  |  |  |  |  |  |  |  |  |  |  |
| 4.4 | C=CC(OC(C)=O)c1ccc(OC(C)=O)cc1 (racemic) | 31.8 | 104 | 4.4 | 102 | 103 | 5 | 35.1 | 108 |  |  |  |  |  |  |  |  |  |  |  |
| 3.3 | C=C[C@H](OC/C=C/c1ccc(O)cc1)c1ccc(O)cc1 | 114 | 119 | 46.4 | 111 | 70.5 | 40.4 | 46.4 | 120 |  |  |  |  |  |  |  |  |  |  |  |
| 3.2 | C=C[C@@H](OC/C=C/c1ccc(O)cc1)c1ccc(O)cc1 | 93.9 | 107 | 47.1 | 106 | 80.2 | 32.9 | 47.7 | 103 |  |  |  |  |  |  |  |  |  |  |  |
| 3 | C=CC(OC/C=C/c1ccc(O)cc1)c1ccc(O)cc1 (racemic) | 105 | 95.1 | 43.6 | 102 | 77.4 | 26.7 | 50.9 | 104 |  |  |  |  |  |  |  |  |  |  |  |
| 2.2 | C=CC(OC/C=C/c1ccc(OC(C)=O)cc1)c1ccc(OC(C)=O)cc1 (racemic) | 12.9 | 99.3 | 32.4 | 105 | -5.5 | 10.3 | 57.2 | 85.2 |  |  |  |  | 0.79 | 0.81 |  | 0.81 | 0.86 | 0.77 | 0.6 |
| 1.9 | C=C[C@@H](OC/C=C/c1ccc(OC(C)=O)cc1)c1ccc(OC(C)=O)cc1 | 29.7 | 102 | 31.8 | 107 | 137 | 10.8 | 71.4 | 81.5 |  |  |  |  | 0.92 | 0.94 |  | 0.88 | 1.67 | 0.84 | 0.56 |
